One series relates to Liver microsomes.
Assay: not given
As to conditions: human.
`O=C(NC12CC3CC(CC(C3)C1)C2)N[C@H]1CC[C@@H](OCc2c(Cl)cccc2Cl)CC1`: the Stability was 26%. Regarding `CC(C)Oc1cc(F)c(CO[C@H]2CC[C@@H](NC(=O)NC34CC5CC(CC(C5)C3)C4)CC2)c(F)c1`, the Stability came out at 29%.

Take `O=C(NC12CC3CC(CC(C3)C1)C2)N[C@H]1CC[C@@H](OCc2ccc(Br)cc2)CC1`: the Stability worked out at 20%. Same read-out and setting: to `O=C(NC12CC3CC(CC(C3)C1)C2)N[C@H]1CC[C@H](OCc2ccc(Br)cc2)CC1` belongs 41%; to `O=C(NC12CC3CC(CC(C3)C1)C2)N[C@H]1CC[C@H](OCc2ccccc2Cl)CC1`, 54%.

The compound `O=C(NC12CC3CC(CC(C3)C1)C2)N[C@H]1CC[C@H](OCc2c(Cl)cccc2Cl)CC1` registered a Stability of 51%. The compound `O=C(NC12CC3CC(CC(C3)C1)C2)N[C@H]1CC[C@H](Oc2ccc(Br)cc2)CC1` yielded a Stability of 23%. `O=C(NC12CC3CC(CC(C3)C1)C2)N[C@H]1CC[C@H](Oc2ccc(F)cc2)CC1` displayed a Stability of 69%. Still for that read-out and setting: to `O=C(NC12CC3CC(CC(C3)C1)C2)N[C@H]1CC[C@@H](Oc2ccc(Br)cc2)CC1` belongs 35%; to `COc1ccc(O[C@H]2CC[C@@H](NC(=O)NC34CC5CC(CC(C5)C3)C4)CC2)cc1`, 14%. On the same count and under the same terms, next, `O=C(NC12CC3CC(CC(C3)C1)C2)N[C@H]1CC[C@@H](Oc2ccc([N+](=O)[O-])cc2)CC1`: 15%; `O=C(NC12CC3CC(CC(C3)C1)C2)N[C@H]1CC[C@@H](OCc2ccccc2Cl)CC1`: 25%. Same read-out and setting: to `O=C(NC12CC3CC(CC(C3)C1)C2)N[C@H]1CC[C@@H](Oc2ccc(F)cc2)CC1` belongs 21%; to `O=C(NC12CC3CC(CC(C3)C1)C2)N[C@H]1CC[C@H](OCc2c(F)cccc2F)CC1`, 43%; to `O=C(NC12CC3CC(CC(C3)C1)C2)N[C@H]1CC[C@@H](OCc2c(F)cccc2F)CC1`, 19%. Compound `O=C(NC12CC3CC(CC(C3)C1)C2)N[C@H]1CC[C@H](OCc2ccccc2)CC1` gave a Stability of 67%. Compound `Cc1ccccc1CO[C@H]1CC[C@H](NC(=O)NC23CC4CC(CC(C4)C2)C3)CC1` had a Stability of 67%. Turning to `O=C(NC12CC3CC(CC(C3)C1)C2)N[C@H]1CC[C@@H](Oc2cc(F)cc(F)c2)CC1`, the Stability amounted to 20%. Same read-out and setting: next, `Cc1ccccc1CO[C@H]1CC[C@@H](NC(=O)NC23CC4CC(CC(C4)C2)C3)CC1`: 14%; `CC(C)Oc1cc(F)c(CO[C@H]2CC[C@H](NC(=O)NC34CC5CC(CC(C5)C3)C4)CC2)c(F)c1`: 34%; `COc1ccc(O[C@H]2CC[C@H](NC(=O)NC34CC5CC(CC(C5)C3)C4)CC2)cc1`: 82%.

System in another series: not listed separately
Description: in vivo. Conditions: dog, plasma, po, 0.3 mg/kg.
For `O=C(O)CCCCCCCCCCCNC(=O)NC12CC3CC(CC(C3)C1)C2`, the AUC was 0.0667 µM·h. As to `CCOCCOCCOCCCCCNC(=O)NC12CC3CC(CC(C3)C1)C2`, the AUC was 0.317 µM·h.
